Each block holds one compound with its values, some of them ahead of it. Active and inactive are the calls of the source.
Experiments:
HEK293 = experiment: cells; format: functional, cell-based; settings: Homo sapiens
[1] = target: T1, Nuclear receptor subfamily 0 group B member 1 (Homo sapiens, UniProt P51843); experiment: Luminescence-based cell-based high throughput dose response assay for inhibitors of the orphan nuclear receptor subfamily 0, group B, member 1 (DAX1; NR0B1). [Related pubchem assays (depositor defined):AID504766, AID504790]; format: functional
T1 sequence (P51843 whole entry): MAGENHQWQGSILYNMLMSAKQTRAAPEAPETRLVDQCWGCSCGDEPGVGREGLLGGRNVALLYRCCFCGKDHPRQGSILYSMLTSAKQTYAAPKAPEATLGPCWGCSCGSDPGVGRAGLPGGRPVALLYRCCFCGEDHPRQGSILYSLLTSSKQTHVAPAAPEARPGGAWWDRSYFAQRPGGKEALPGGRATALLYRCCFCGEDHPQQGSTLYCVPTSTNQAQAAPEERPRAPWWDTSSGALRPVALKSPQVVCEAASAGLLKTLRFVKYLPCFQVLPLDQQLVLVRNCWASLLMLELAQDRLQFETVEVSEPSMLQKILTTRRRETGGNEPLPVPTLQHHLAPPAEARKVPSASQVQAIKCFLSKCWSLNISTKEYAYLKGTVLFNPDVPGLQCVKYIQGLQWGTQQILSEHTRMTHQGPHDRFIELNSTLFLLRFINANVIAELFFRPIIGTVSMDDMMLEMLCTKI

[2] = target: Dual specificity tyrosine-phosphorylation-regulated kinase 1A (Rattus norvegicus, UniProt Q63470); format: biochemical, Homo sapiens
[3] = target: T2, Rac GTPase-activating protein 1 (Homo sapiens, UniProt Q9H0H5); experiment: MgcRacGAP GTPase-activating activity inhibitors, confirmation, biochemical, ADP Hunter fluorescence, primary and confirmatory (AID 624330); format: functional
T2 sequence (Q9H0H5 whole entry): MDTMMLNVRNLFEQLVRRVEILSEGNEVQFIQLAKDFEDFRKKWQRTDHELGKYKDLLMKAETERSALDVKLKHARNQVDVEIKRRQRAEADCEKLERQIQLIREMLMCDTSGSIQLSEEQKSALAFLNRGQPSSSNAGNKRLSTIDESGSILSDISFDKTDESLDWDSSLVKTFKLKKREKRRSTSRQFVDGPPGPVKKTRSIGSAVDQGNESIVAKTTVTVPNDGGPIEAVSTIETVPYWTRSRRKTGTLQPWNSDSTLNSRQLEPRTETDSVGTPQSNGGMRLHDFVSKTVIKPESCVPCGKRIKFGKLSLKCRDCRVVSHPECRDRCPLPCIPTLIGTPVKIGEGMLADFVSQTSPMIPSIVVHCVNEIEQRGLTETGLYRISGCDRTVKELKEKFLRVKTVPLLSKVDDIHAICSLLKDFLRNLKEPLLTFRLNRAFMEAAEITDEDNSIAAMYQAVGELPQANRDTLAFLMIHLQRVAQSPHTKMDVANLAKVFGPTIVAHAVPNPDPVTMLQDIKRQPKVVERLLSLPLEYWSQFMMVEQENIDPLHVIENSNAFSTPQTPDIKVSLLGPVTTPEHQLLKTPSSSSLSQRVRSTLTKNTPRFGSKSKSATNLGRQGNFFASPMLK

[4] = target: T3, Zinc finger protein mex-5 (Caenorhabditis elegans, UniProt Q9XUB2); experiment: MEX-5/TCR-2 RNA interaction inhibitors, dose response, biochemical, C. elegans, fluorescence polarization (AID 1960)
T3 sequence (Q9XUB2 whole entry): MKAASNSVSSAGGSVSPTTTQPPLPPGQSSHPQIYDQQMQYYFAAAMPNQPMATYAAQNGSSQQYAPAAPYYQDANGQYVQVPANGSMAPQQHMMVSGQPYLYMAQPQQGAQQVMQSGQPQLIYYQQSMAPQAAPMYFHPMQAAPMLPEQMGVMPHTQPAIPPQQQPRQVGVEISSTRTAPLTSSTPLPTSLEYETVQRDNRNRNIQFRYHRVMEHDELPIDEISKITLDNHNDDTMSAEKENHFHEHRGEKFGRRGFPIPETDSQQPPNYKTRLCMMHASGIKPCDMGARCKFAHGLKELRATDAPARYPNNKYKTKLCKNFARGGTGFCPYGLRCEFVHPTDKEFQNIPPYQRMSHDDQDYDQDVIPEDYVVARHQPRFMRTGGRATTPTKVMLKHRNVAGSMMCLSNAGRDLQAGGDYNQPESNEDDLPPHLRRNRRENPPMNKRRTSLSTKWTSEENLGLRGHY

[5] = target: Glucose-6-phosphate 1-dehydrogenase (Homo sapiens, UniProt P11413); experiment: human G6PD enzyme inhibitors, dose response, selectivity assay for P. falciparum G6PD inhibitor project, biochemical, fluorescence (AID 504792); format: functional
Glucose-6-phosphate 1-dehydrogenase, sequence (P11413 whole entry, the tested form may be a part): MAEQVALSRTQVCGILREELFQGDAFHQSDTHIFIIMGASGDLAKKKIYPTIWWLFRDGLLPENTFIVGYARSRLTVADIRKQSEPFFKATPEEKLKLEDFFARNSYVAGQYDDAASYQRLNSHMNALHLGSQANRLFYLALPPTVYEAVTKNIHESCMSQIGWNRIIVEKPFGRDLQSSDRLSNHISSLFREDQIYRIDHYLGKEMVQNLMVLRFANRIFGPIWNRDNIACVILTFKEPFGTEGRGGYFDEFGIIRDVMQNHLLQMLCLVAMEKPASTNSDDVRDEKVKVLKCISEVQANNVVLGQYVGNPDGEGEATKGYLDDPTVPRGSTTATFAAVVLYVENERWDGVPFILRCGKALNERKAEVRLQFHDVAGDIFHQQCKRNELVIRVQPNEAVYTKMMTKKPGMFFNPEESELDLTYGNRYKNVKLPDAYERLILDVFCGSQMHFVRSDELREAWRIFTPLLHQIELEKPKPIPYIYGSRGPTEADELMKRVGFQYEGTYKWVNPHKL

[6] = target: T4, RNA-binding protein pos-1 (Caenorhabditis elegans, UniProt G5EF15); experiment: inhibitors of POS-1/mex-3 RNA binding, dose response, biochemical, fluorescence polarization (AID 1964);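 further: purified POS-1 fused to maltose binding protein made in E. coli; potency of compounds blocking POS-1 binding to fluorescent RNA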
T4 sequence (G5EF15 whole entry): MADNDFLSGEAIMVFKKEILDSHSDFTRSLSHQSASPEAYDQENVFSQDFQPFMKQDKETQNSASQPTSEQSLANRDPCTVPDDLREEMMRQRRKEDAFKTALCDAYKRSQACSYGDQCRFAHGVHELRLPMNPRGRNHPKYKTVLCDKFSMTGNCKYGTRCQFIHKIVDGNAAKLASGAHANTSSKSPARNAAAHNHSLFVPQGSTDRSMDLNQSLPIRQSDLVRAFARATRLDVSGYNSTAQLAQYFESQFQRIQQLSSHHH

[7] = target: Induced myeloid leukemia cell differentiation protein Mcl-1 (Homo sapiens, UniProt Q07820); format: functional
Induced myeloid leukemia cell differentiation protein Mcl-1, sequence (Q07820 whole entry): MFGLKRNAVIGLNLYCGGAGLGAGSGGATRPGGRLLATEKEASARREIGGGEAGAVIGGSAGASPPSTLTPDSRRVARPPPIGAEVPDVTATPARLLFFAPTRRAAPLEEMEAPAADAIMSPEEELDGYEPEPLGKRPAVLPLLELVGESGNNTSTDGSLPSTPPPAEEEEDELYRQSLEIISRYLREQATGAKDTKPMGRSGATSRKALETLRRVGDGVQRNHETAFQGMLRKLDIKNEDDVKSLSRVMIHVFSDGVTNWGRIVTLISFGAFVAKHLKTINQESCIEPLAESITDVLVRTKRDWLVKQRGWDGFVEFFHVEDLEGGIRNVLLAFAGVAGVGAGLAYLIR

[8] = target: T5, Sentrin-specific protease 8 (Homo sapiens, UniProt Q96LD8); experiment: SENP8 protease inhibitors, SAR follow-up, biochemical, luminescence, set 2 (AID 588601); format: functional
T5 sequence (Q96LD8 whole entry): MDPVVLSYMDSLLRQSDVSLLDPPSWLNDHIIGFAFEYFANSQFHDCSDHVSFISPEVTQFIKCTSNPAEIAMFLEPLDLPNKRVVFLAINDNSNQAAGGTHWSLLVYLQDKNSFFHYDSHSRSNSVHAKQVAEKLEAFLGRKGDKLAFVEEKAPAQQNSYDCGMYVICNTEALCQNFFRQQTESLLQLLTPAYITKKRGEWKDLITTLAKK

[9] = target: T6, Sentrin-specific protease 7 (Homo sapiens, UniProt Q9BQF6); experiment: SENP7 protease inhibitors, SAR follow-up, biochemical, luminescence, set 2 (AID 588600); format: functional
T6 sequence (Q9BQF6 whole entry): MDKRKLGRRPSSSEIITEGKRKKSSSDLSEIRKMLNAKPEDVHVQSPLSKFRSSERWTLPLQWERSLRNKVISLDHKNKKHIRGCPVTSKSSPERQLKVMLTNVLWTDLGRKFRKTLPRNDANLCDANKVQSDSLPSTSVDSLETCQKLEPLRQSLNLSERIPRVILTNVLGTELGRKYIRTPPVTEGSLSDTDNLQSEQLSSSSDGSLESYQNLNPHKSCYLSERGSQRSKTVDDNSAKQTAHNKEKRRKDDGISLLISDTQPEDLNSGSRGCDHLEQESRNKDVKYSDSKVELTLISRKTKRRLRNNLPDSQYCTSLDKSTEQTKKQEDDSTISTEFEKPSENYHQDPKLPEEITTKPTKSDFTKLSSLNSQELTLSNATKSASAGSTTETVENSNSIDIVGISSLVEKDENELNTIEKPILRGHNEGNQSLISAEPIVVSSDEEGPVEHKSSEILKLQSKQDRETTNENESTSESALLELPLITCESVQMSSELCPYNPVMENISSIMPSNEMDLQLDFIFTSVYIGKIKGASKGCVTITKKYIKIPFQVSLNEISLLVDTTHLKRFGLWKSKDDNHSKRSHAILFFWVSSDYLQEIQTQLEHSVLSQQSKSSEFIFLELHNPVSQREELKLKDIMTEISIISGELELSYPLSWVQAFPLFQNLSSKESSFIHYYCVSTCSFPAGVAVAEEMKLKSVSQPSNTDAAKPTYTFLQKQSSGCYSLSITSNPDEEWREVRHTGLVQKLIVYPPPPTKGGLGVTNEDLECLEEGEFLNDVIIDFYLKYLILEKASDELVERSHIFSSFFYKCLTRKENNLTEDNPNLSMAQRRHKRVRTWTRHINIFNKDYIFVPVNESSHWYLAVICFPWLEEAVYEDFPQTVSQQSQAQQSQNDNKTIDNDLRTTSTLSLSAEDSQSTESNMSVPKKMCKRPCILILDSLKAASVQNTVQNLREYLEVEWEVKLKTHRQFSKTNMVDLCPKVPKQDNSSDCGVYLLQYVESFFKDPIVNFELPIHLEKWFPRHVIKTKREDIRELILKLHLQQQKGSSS

[10] = target: T6, Sentrin-specific protease 7; experiment: SENP7 protease inhibitors, SAR follow-up, biochemical, luminescence (AID 504497); format: functional
[11] = target: T7, Sentrin-specific protease 6 (Homo sapiens, UniProt Q9GZR1); experiment: SAR Analysis of small molecule inhibitors of Sentrin-specific protease 6 (SENP6) using a Luminescent assay. [Related pubchem assays (depositor defined):AID2582, AID2599]; format: functional
T7 sequence (Q9GZR1 whole entry): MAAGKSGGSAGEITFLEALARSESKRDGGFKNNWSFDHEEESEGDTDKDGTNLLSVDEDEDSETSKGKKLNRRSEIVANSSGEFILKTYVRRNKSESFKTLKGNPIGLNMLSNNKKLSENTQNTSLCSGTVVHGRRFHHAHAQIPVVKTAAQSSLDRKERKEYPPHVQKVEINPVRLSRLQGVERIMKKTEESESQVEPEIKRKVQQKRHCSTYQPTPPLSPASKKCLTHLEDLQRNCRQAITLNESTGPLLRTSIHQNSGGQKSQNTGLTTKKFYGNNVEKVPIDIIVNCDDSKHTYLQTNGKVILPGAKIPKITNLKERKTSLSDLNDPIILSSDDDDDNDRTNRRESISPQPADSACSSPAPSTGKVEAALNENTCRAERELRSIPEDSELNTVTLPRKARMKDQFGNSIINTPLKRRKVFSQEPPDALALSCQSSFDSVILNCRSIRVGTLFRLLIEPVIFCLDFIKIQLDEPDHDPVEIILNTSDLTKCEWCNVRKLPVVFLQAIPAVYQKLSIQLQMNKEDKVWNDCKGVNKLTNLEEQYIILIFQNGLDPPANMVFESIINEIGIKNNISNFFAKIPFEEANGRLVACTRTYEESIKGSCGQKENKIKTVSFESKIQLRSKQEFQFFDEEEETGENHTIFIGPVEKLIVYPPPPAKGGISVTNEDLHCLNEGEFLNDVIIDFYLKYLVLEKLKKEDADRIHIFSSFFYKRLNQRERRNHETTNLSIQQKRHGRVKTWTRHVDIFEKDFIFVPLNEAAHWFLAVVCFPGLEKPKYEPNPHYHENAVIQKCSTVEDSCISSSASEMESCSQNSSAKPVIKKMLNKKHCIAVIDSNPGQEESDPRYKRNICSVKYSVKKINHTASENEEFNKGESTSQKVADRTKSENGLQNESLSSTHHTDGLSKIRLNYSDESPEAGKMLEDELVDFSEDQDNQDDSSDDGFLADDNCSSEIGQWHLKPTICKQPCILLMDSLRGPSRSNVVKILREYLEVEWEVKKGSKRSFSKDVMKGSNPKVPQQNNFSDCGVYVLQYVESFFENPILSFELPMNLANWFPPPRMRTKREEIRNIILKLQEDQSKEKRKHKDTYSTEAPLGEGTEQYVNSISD

[12] = target: T7, Sentrin-specific protease 6; experiment: SENP6 protease inhibitors, SAR follow-up, biochemical, luminescence, set 2 (AID 588598); format: functional
[13] = target: T5, Sentrin-specific protease 8; experiment: SENP8 protease inhibitors, SAR follow-up, biochemical, luminescence (AID 504501); format: functional
Caspase-3 [14] = target: T8, Caspase-3 (Homo sapiens, UniProt P42574); experiment: caspase-3 inhibitors as off-family protease, SAR follow-up, selectivity assay for SENP protease inhibitor project, biochemical, luminescence, set 2 (AID 588599); format: functional
T8 sequence (P42574 whole entry): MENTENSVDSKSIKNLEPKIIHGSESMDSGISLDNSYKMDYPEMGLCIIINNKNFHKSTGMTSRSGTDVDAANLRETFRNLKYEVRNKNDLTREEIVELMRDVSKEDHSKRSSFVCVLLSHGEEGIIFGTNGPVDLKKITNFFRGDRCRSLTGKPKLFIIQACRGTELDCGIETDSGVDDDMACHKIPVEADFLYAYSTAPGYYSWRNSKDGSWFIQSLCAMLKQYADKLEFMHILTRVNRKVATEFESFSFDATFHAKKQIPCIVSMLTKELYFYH

Caspase-3 [15] = target: T8, Caspase-3; experiment: SAR Analysis of small molecule inhibitors of Sentrin-specific proteases (SENPs) using a Caspase-3 Selectivity assay. [Related pubchem assays (depositor defined):AID2540, AID2599, AID434973, AID489001]; format: functional
Escherichia coli = experiment: microbe, parasite or virus in culture

SMILES: COc1ccccc1-c1nnc(-c2ccc(C)cc2)o1
IC50 (HEK293): > 67.5 µM (inactive) | IC50 [1]: > 67.5 µM (inactive)

AC50 [2]: 3.12 µM (active)
SMILES: Oc1ccc(-c2nc3ccccc3nc2-c2ccc(O)cc2O)c(O)c1

AC50 [2]: 15.5 µM (active)
SMILES: Cn1c(C(=O)NC2CC2)cc2c(=O)n(C)c3ccccc3c21

SMILES: Cn1c(N2CCOCC2)c(/C=N/O)c2ccccc21
IC50 [3]: 74.5 µM (active) | IC50 (HEK293): > 67.5 µM (inactive) | IC50 [1]: > 67.5 µM (inactive)

SMILES: COc1cc(O)c(C(=O)O)c(-c2cc(O)c(O)cc2C)c1 [ALTENUSIN]
EC50 [4]: > 300 µM (inconclusive) | IC50 [5]: 31 µM (inactive) | EC50 [6]: 31 µM (active) | IC50 [7]: 4.15 µM (active)

IC50 [9]: 10.3 µM (active) | IC50 [10]: 1.1 µM (active) | IC50 [11]: 1.4 µM (active) | IC50 [12]: 10.6 µM (active) | IC50 (Caspase-3 [14]): 10.4 µM (active) | IC50 (Caspase-3 [15]): 1.1 µM (active)
SMILES: O=C(Nc1nc2ccccc2s1)c1ccsc1
IC50 [8]: 9.92 µM (active) | IC50 [13]: 1.4 µM (active)

SMILES: COc1ccc(S(=O)(=O)NCc2ccco2)c2ccccc12
AC50 (Escherichia coli): 28.5 µM (active)

IC50 [9]: > 99 µM (inactive) | IC50 [12]: > 99 µM (inactive) | IC50 (Caspase-3 [14]): > 99 µM (inactive)
SMILES: O=C(Nc1nc2ccccc2s1)c1cccc(S(=O)(=O)N2CCN(c3ccccc3)CC2)c1
IC50 [8]: > 99 µM (inactive)

SMILES: Cc1ccccc1C(=O)N1CCC(C(=O)Nc2ccccc2Cl)CC1
AC50 (Escherichia coli): 27.8 µM (active)

— ChEMBL document CHEMBL1201862, “PubChem BioAssay data set” (2004)
